Reference: patent publication US12098144B2, “Piperazine indazole glucocorticoid receptor antagonists” (Corcept Therapeutics Incorporated, priority 2021, dated 2024)

Target: T1, glucocorticoid receptor (Homo sapiens, UniProt P04150)
T1 construct: endogenous in cells; ATCC cat
T1 sequence (P04150 1-777): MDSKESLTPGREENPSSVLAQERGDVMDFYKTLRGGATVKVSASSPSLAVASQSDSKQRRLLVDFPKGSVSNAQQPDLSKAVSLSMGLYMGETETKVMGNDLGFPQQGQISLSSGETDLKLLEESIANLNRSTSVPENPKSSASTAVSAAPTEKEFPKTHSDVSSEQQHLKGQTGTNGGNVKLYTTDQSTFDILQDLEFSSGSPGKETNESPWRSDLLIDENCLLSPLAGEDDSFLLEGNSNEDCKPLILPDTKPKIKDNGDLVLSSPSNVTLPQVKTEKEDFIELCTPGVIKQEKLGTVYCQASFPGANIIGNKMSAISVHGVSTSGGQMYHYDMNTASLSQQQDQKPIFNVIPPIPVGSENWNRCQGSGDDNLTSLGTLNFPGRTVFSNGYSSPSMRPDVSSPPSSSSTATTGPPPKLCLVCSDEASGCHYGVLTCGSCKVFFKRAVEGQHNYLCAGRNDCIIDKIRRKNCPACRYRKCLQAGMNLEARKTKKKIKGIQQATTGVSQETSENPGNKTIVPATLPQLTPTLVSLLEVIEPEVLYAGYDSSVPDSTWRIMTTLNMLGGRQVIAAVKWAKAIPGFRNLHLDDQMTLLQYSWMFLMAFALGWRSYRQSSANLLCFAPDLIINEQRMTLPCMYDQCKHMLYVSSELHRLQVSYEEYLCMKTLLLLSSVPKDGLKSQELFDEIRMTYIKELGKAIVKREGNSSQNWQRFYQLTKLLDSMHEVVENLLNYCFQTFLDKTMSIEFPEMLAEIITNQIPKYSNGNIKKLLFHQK
Assay: Hep G2 TAT Ki: inhibition of dexamethasone-induced TAT in HepG2 cells (96 well)
Type: cell-based
Conditions: challenge of 100 nM dexamethasone, IC50 converted to Ki by Cheng and Prusoff equation
Method in brief: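 Cells lysed 15 min at 4 °C; TAT enzyme reaction 2 h at 37 °C, stopped with KOH, 30 min further at 37 °C. Inhibition fitted to 4-parameter logistic.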

Ki [µM] | Molecule
0.015 | Cc1cc2c(cnn2-c2ccc(F)cc2)cc1C1CN(S(=O)(=O)c2cncs2)CCN1CC(C)C (single isomer, unassigned) [Example 58, 5-((3-(1-(4-fluorophenyl)-6-methyl-1H-indazol-5-yl)-4-isobutylpiperazin-1-yl)sulfonyl)thiazole]
0.014 | Cc1ncc(S(=O)(=O)N2CCN(CC3CCC3)C(c3cc4cnn(-c5ccc(F)cc5)c4cc3C)C2)s1 (single isomer, unassigned) [Example 124, 5-((4-(cyclobutylmethyl)-3-(1-(4-fluorophenyl)-6-methyl-1H-indazol-5-yl)piperazin-1-yl)sulfonyl)-2-methylthiazole]
0.0077 | Cc1cc2c(cnn2-c2ccc(F)cc2)cc1C1CN(S(=O)(=O)c2ccc(C#N)cc2)CCN1CCC(F)(F)F (single isomer, unassigned) [Example 130, 4-((3-(1-(4-fluorophenyl)-6-methyl-1H-indazol-5-yl)-4-(3,3,3-trifluoropropyl)piperazin-1-yl)sulfonyl)benzonitrile]
0.015 | CCn1cc(S(=O)(=O)N2CCN(CC(C)C(F)(F)F)C(c3cc4cnn(-c5ccc(F)cc5)c4cc3C)C2)cn1 (single isomer, unassigned) [Example 144, 5-(4-((1-ethyl-1H-pyrazol-4-yl)sulfonyl)-1-(3,3,3-trifluoro-2-methylpropyl)piperazin-2-yl)-1-(4-fluorophenyl)-6-methyl-1H-indazole]
0.029 | Cc1cc2c(cnn2-c2ccc(F)cc2)cc1C1CN(S(=O)(=O)c2cnn(C)n2)CCN1CC1(F)CC1 (single isomer, unassigned) [Example 79, 5-(1-((1-fluorocyclopropyl)methyl)-4-((2-methyl-2H-1,2,3-triazol-4-yl)sulfonyl)piperazin-2-yl)-1-(4-fluorophenyl)-6-methyl-1H-indazole]
0.042 | Cc1cc2c(cnn2-c2ccc(F)cc2)cc1C1CN(S(=O)(=O)c2c(C)nnn2C)CCN1CC(C)C (single isomer, unassigned) [Example 100, 5-(4-((1,4-dimethyl-1H-1,2,3-triazol-5-yl)sulfonyl)-1-isobutylpiperazin-2-yl)-1-(4-fluorophenyl)-6-methyl-1H-indazole]
0.019 | Cc1cc2c(cnn2-c2ccc(F)cc2)cc1C1CN(S(=O)(=O)c2cnn(C)n2)CCN1CC1CC(C)(C)C1 (single isomer, unassigned) [Example 119, 5-(1-((3,3-dimethylcyclobutyl)methyl)-4-((2-methyl-2H-1,2,3-triazol-4-yl)sulfonyl)piperazin-2-yl)-1-(4-fluorophenyl)-6-methyl-1H-indazole]
0.1 | Cc1cc2c(cnn2-c2cnn(C)c2)cc1C1CN(S(=O)(=O)c2cnn(C)n2)CCN1CCC(F)(F)F (stereo not shown) [Example 168, 6-methyl-1-(1-methyl-1H-pyrazol-4-yl)-5-(4-((2-methyl-2H-1,2,3-triazol-4-yl)sulfonyl)-1-(3,3,3-trifluoropropyl)piperazin-2-yl)-1H-indazole]
0.054 | Cc1cc2c(cnn2-c2ccc(F)cc2)cc1C1CN(S(=O)(=O)c2cnn(C)n2)CC(C)N1CC(C)C (stereo not shown) [Example 87, 1-(4-fluorophenyl)-5-(1-isobutyl-6-methyl-4-((2-methyl-2H-1,2,3-triazol-4-yl)sulfonyl)piperazin-2-yl)-6-methyl-1H-indazole]
0.044 | Cc1cc2c(cnn2-c2ccc(F)cc2)cc1C1CN(S(=O)(=O)CCOC(C)C)CCN1CC(C)C (single isomer, unassigned) [Example 108, 1-(4-fluorophenyl)-5-(1-isobutyl-4-((2-isopropoxyethyl)sulfonyl)piperazin-2-yl)-6-methyl-1H-indazole]
0.068 | Cc1cc2c(cnn2-c2ccc(F)cc2)cc1C1CN(S(=O)(=O)c2cnn(C)n2)CCN1CC1CC1 (stereo not shown) [Example 12, 5-(1-(cyclopropylmethyl)-4-((2-methyl-2H-1,2,3-triazol-4-yl)sulfonyl)piperazin-2-yl)-1-(4-fluorophenyl)-6-methyl-1H-indazole]
0.42 | Cc1cc2c(cnn2-c2ccc(F)cc2)cc1C1CN(S(=O)(=O)c2cnn(C)n2)CCN1Cc1ccccc1 (single isomer, unassigned) [Example 5, 5-(1-benzyl-4-((2-methyl-2H-1,2,3-triazol-4-yl)sulfonyl)piperazin-2-yl)-1-(4-fluorophenyl)-6-methyl-1H-indazole]
0.044 | Cc1cc2c(cnn2-c2ccc(F)cc2)cc1C1CN(S(=O)(=O)c2cnn(C)n2)CCN1CC(C)(C)C(F)(F)F (single isomer, unassigned) [Example 163, 1-(4-fluorophenyl)-6-methyl-5-(4-((2-methyl-2H-1,2,3-triazol-4-yl)sulfonyl)-1-(3,3,3-trifluoro-2,2-dimethylpropyl)piperazin-2-yl)-1H-indazole]
0.024 | Cc1cc2c(cnn2-c2ccc(F)cc2)cc1C1CN(S(=O)(=O)c2ccccn2)CCN1CC(C)C (single isomer, unassigned) [Example 115, 1-(4-fluorophenyl)-5-(1-isobutyl-4-(pyridin-2-ylsulfonyl)piperazin-2-yl)-6-methyl-1H-indazole]
0.055 | Cc1cc2c(cnn2-c2ccc(F)cc2)cc1C1CN(S(=O)(=O)Cc2ccc(C#N)cc2)CCN1CC(C)C (single isomer, unassigned) [Example 114, 4-(((3-(1-(4-fluorophenyl)-6-methyl-1H-indazol-5-yl)-4-isobutylpiperazin-1-yl)sulfonyl)methyl)benzonitrile]
0.12 | Cc1cc2c(cnn2-c2ccc(F)cc2)cc1C1C(=O)N(S(=O)(=O)c2cnn(C)n2)CCN1CC(C)C (stereo not shown) [Example 152, 3-(1-(4-fluorophenyl)-6-methyl-1H-indazol-5-yl)-4-isobutyl-1-((2-methyl-2H-1,2,3-triazol-4-yl)sulfonyl)piperazin-2-one]
0.023 | CCn1ncc(S(=O)(=O)N2CCN(CCC(F)(F)F)C(c3cc4cnn(-c5ccc(F)cc5)c4cc3C)C2)n1 (single isomer, unassigned) [Example 135, 5-(4-((2-ethyl-2H-1,2,3-triazol-4-yl)sulfonyl)-1-(3,3,3-trifluoropropyl)piperazin-2-yl)-1-(4-fluorophenyl)-6-methyl-1H-indazole]
0.019 | Cc1cc2c(cnn2-c2ccc(F)cc2)cc1C1CN(S(=O)(=O)c2ccccn2)CCN1CC(C)C(F)(F)F (single isomer, unassigned) [Example 150, 1-(4-fluorophenyl)-6-methyl-5-(4-(pyridin-2-ylsulfonyl)-1-(3,3,3-trifluoro-2-methylpropyl)piperazin-2-yl)-1H-indazole]
0.31 | Cc1cc2c(cnn2-c2ccc(F)cc2)cc1C1CN(S(=O)(=O)CC2CC2)CCN1CC(C)C (single isomer, unassigned) [Example 46, 5-(4-((cyclopropylmethyl)sulfonyl)-1-isobutylpiperazin-2-yl)-1-(4-fluorophenyl)-6-methyl-1H-indazole]
0.014 | Cc1cc2c(cnn2-c2ccc(F)cc2)cc1C1CN(S(=O)(=O)c2cnn(C)c2)CCN1CC(C)C(F)(F)F (single isomer, unassigned) [Example 141, 1-(4-fluorophenyl)-6-methyl-5-(4-((1-methyl-1H-pyrazol-4-yl)sulfonyl)-1-(3,3,3-trifluoro-2-methylpropyl)piperazin-2-yl)-1H-indazole]
0.035 | Cc1cc2c(cnn2-c2ccc(F)cc2)cc1C1C(C)N(S(=O)(=O)c2cnn(C)n2)CCN1CC(C)C (stereo not shown) [Example 88, 1-(4-fluorophenyl)-5-(1-isobutyl-3-methyl-4-((2-methyl-2H-1,2,3-triazol-4-yl)sulfonyl)piperazin-2-yl)-6-methyl-1H-indazole]
0.077 | Cc1cc2c(cnn2-c2ccc(F)cc2)cc1C1CN(S(=O)(=O)c2cnn(C)n2)CCN1C1CCC1 (single isomer, unassigned) [Example 25, 5-(1-cyclobutyl-4-((2-methyl-2H-1,2,3-triazol-4-yl)sulfonyl)piperazin-2-yl)-1-(4-fluorophenyl)-6-methyl-1H-indazole]
0.0085 | Cc1cc2c(cnn2-c2ccc(F)cc2)cc1C1CN(S(=O)(=O)c2cccnc2)CCN1CC(C)C(F)(F)F (single isomer, unassigned) [Example 145, 1-(4-fluorophenyl)-6-methyl-5-(4-(pyridin-3-ylsulfonyl)-1-(3,3,3-trifluoro-2-methylpropyl)piperazin-2-yl)-1H-indazole]
0.011 | Cc1ncc(S(=O)(=O)N2CCN(CC(C)C(F)(F)F)C(c3cc4cnn(-c5ccc(F)cc5)c4cc3C)C2)s1 (single isomer, unassigned) [Example 147, 5-((3-(1-(4-fluorophenyl)-6-methyl-1H-indazol-5-yl)-4-(3,3,3-trifluoro-2-methylpropyl)piperazin-1-yl)sulfonyl)-2-methylthiazole]

Molecule | Ki [µM]
5-(1-(2-fluoro-2-methylpropyl)-4-((2-methyl-2H-1,2,3-triazol-4-yl)sulfonyl)piperazin-2-yl)-1-(4-fluorophenyl)-6-methyl-1H-indazole [Example 162a] | 0.057
